Source: patent US20140357512A1, “HISTONE DEACETYLASE (HDAC) BIOMARKERS IN MULTIPLE MYELOMA” (priority 2013, published 2014)

Tested on: human myeloma cell line MM.1S
Assay: SILAC acetylated-lysine peptide profiling, HDAC inhibitor vs DMSO (light/heavy ratio)
Format: cell-based
Source text: An embodiment of the invention comprises utilizing the SILAC method in order to quantitate changes in protein expression between two or more populations of cells. The SILAC method is a technique based on mass spectrometry that detects differences in protein abundance among samples using non-radioactive isotopic labeling. The SILAC method is known in the art, and described in detail in Ong et al., “Stable Isotope Labeling by Amino Acids in Cell Culture, SILAC, as a Simple and Accurate Approach to Expression Proteomics”, Molecular & Cellular Proteomics, vol. 1, pp. 376-386 (2002), which is incorporated herein by reference in its entirety.
Briefly, the SILAC method involves growing two populations of cells in cell culture. The first population of cells is grown in growth media containing normal amino acids (“normal media”). The second population of cells is grown in media lacking a standard essential amino acid (such as lysine), but is then supplemented with a non-radioactive, isotopically labeled form of that essential amino acid (such as lysine labeled with ^13C atoms, rather than normal ^12C atoms), which is called “heavy media”. When the two populations of cells are each growing in the medium, they incorporate the amino acids into all of their proteins. The growth of cells maintained in the heavy media is no different from that in normal media. All peptides containing the heavy amino acids are heavier than their normal counterparts. The cells from each of the two populations of cells are lysed. The lysates from each of the two cell populations are then combined. The combined cell lysates are then analyzed by mass spectrometry. Pairs of chemically identical peptides of different stable isotope composition can be differentiated in a mass spectrometer due to their difference in mass. The ratio of peak intensities in the mass spectrum for such peptide pairs reflects the abundance ratio for the two proteins.
This example describes SILAC studies that were performed to compare the effects of three different HDAC inhibitors (Compound A, Compound B, and tubastatin A) to a control on a human multiple myeloma cell line. The HDAC inhibitors were also compared amongst themselves to determine differences in their effects.
A human myeloma cell line MM.1S was grown using either ^12C (light) or ^13C (heavy) lysine containing culture medium. The “heavy” cells were treated with DMSO as the control, and the “light” cells were treated with a single HDAC inhibitor at 37° C. for 6 hours. The heavy and light cells were lysed, and the lysates were mixed in 1:1 ratio and digested with the protease trypsin. The acetylated lysine containing peptides (due to the action of the HDAC inhibitor) in the digested peptide pool were captured by a non-specific anti-acetylated lysine antibody cocktail (the antibodies identify both light and heavy acetylated peptides), and subjected to mass spectrometry analysis in order to identify thousands of individual peptides.
Thousands of peptides were identified in pairs (^12C and ^13C) due to their known mass differences. The amino acid sequence and quantitative ratio (Light/Heavy) of a given peptide in two differentially treated cell lysates were then determined and annotated with their possible protein (gene) sources.
As stated above, three HDAC inhibitors (Compound A, Compound B, and Tubastatin A) were used. Thus, the SILAC method was performed three times, with a different HDAC inhibitor compared to a control each time. Accordingly, there are three pairs of quantitative data in the table below, i.e., Compound A:DMSO, Compound B:DMSO, and Tubastatin A:DMSO. A cut-off of 1.30 fold of change (increase or decrease) was then used to determine “changed” or “+” in the table, and any peptides with a fold of change less than 1.3 fold were determined to be “unchanged” or “0” in the table. Those peptides that were not identified were marked as “NA” in the table. […]

O=C(NO)c1cnc(NC2(c3cccc(F)c3)CCCCC2)nc1 [Compound B, 2-((1-(3-fluorophenyl)cyclohexyl)amino)-N-hydroxypyrimidine-5-carboxamide] was tested, and the “light to heavy ratio (L/H ratio), log 2 scale, acetylated peptide VGDK(ac)[…] (SEQ ID NO: 773)” value (10 kDa heat shock protein mitochondrial [70], gene HSPE1, drug:DMSO) was 0.00, the “light to heavy ratio (L/H ratio) of acetylated peptide IQEVLK(ac)HAR (SEQ ID NO: 264)” value (39S ribosomal protein L20 mitochondrial [26], MRPL20, drug:DMSO) was 0.00 log 2 and the “light to heavy ratio (L/H ratio) of acetylated peptide KDVHMPK(ac)HPELADK (SEQ ID NO: 353)” value (40S ribosomal protein S10 [31], RPS10, drug:DMSO) was 0.56 log 2. The “light to heavy ratio (L/H ratio) of acetylated peptide NK(ac)[…] (SEQ ID NO: 559)” value (40S ribosomal protein S17 [49], gene RPS17, RPS17L, inhibitor:DMSO) was 0.00 log 2, the “light to heavy ratio (L/H ratio) of acetylated peptide IDK(ac)PILK (SEQ ID NO: 506)” value (60S ribosomal protein L8 [177], gene RPL8, inhibitor:DMSO) was 0.00 log 2 and the “light to heavy ratio (L/H ratio) of acetylated peptide GPLDK(ac)WR (SEQ ID NO: 622)” value (60S ribosomal protein L10-like [208], gene RPL10L, inhibitor:DMSO) was 0.00 log 2. The “light to heavy ratio (L/H ratio), log 2 scale, acetylated peptide YMVK(ac)SCGK (SEQ ID NO: 811)” value (60S ribosomal protein L10 [78], gene SNORA70, RPL10, drug:DMSO) was 0.00, the “light to heavy ratio (L/H ratio), log 2 scale, acetylated peptide VDEVK(ac)STIK (SEQ ID NO: 805)” value (60S ribosomal protein L10a [152], gene RPL10A, drug:DMSO) was 0.00 and the “light to heavy ratio (L/H ratio) of acetylated peptide VITEEEK(ac)NFK (SEQ ID NO: 522)” value (60S ribosomal protein L13 [174], gene RPL13, inhibitor:DMSO) was 0.00 log 2. For the same compound, the “light to heavy ratio (L/H ratio) of acetylated peptide K(ac)FAYLGR (SEQ ID NO: 614)” value (60S ribosomal protein L13a [134], gene SNORD32A, RPL13A, SNORD33, SNORD34, inhibitor:DMSO) was 0.00 log 2, the “light to heavy ratio (L/H ratio), log 2 scale, acetylated peptide LAHEVGWK(ac)[…] (SEQ ID NO: 812)” value (60S ribosomal protein L13a [148], gene SNORD32A, RPL13A, SNORD33, SNORD34, drug:DMSO) was 0.00 and the “light to heavy ratio (L/H ratio) of acetylated peptide GHK(ac)FHHTIGGSR (SEQ ID NO: 519)” value (60S ribosomal protein L15 [179], gene RPL15, inhibitor:DMSO) was 0.00 log 2. For the same compound, the “light to heavy ratio (L/H ratio), log 2 scale, acetylated peptide SFVK(ac)[…] (SEQ ID NO: 770)” value (60S ribosomal protein L27 [73], gene RPL27, drug:DMSO) was 0.00, the “light to heavy ratio (L/H ratio), log 2 scale, acetylated peptide YSVDIPLDK(ac)TVVNK (SEQ ID NO: 807)” value (60S ribosomal protein L27 [93], gene RPL27, drug:DMSO) was 0.00 and the “light to heavy ratio (L/H ratio) of acetylated peptide NCSSFLIK(ac)R (SEQ ID NO: 558)” value (60S ribosomal protein L28 [19], gene RPL28, inhibitor:DMSO) was 0.00 log 2. The “light to heavy ratio (L/H ratio) of acetylated peptide IHGVGFK(ac)K (SEQ ID NO: 542)” value (60S ribosomal protein L31 [39], gene RPL31, inhibitor:DMSO) was 0.00 log 2, the “light to heavy ratio (L/H ratio), log 2 scale, acetylated peptide LNK(ac)AVWAK (SEQ ID NO: 808)” value (60S ribosomal protein L31 [70], gene RPL31, drug:DMSO) was 0.00 and the “light to heavy ratio (L/H ratio) of acetylated peptide LWSK(ac)AIFAGYK (SEQ ID NO: 538)” value (60S ribosomal protein L35a [8], gene RPL35A, inhibitor:DMSO) was 0.00 log 2. For the same compound, the “light to heavy ratio (L/H ratio) of acetylated peptide KIEISQHAK(ac)YTCSFCGK (SEQ ID NO: 351)” value (60S ribosomal protein L37a [36], RPL37A, drug:DMSO) was 0.41 log 2, the “light to heavy ratio (L/H ratio) of acetylated peptide VMEHFIK(ac)LYK (SEQ ID NO: 276)” value (78 kDa glucose-regulated protein [268], HSPA5, drug:DMSO) was 0.00 log 2 and the “light to heavy ratio (L/H ratio) of acetylated peptide AK(ac)[…] (SEQ ID NO: 266)” value (78 kDa glucose-regulated protein [326], HSPA5, drug:DMSO) was 0.00 log 2. For the same compound, the “light to heavy ratio (L/H ratio) of acetylated peptide FK(ac)[…] (SEQ ID NO: 333)” value (116 kDa U5 small nuclear ribonucleoprotein component [790], EFTUD2, drug:DMSO) was −0.99 log 2, the “L/H ratio of acetylated peptide” value ((ac)AQLGK(ac)LLK (SEQ ID NO: 421), NEDD8-activating enzyme E1 regulatory subunit [6], NAE1) was 0.70 log 2 and the “L/H ratio of acetylated peptide” value ((ac)MEDYTK(ac)IEK (SEQ ID NO: 374), Isoform 2 of Cyclin-dependent kinase 1 [6], CDK1) was −0.51 log 2. For the same compound, the “light to heavy ratio (L/H ratio) of acetylated peptide, log 2 scale” value ((ac)SIGVPIK(ac)[…] (SEQ ID NO: 224), Small nuclear ribonucleoprotein Sm D3 [8], SNRPD3) was 0.00, the “L/H ratio of acetylated peptide” value ((ac)SNMEK(ac)HLFNLK (SEQ ID NO: 376), Charged multivesicular body protein 1b [6], CHMP1B) was 0.85 log 2 and the “L/H ratio of acetylated peptide” value ((ac)SSNECFK(ac)CGR (SEQ ID NO: 379), Isoform 1 of Cellular nucleic acid-binding protein [8], CNBP) was −0.82 log 2. For the same compound, the “light to heavy ratio (L/H ratio) of acetylated peptide, log 2 scale” value ((ac)SVFGK(ac)LFGAGGGK (SEQ ID NO: 143), Charged multivesicular body protein 4b [6], CHMP4B) was 0.00, the “L/H ratio of acetylated peptide” value ((ac)[…](ac)DLK (SEQ ID NO: 437), Isoform 2 of Prothymosin alpha [15], PTMA, MIR1244-3, MIR1244-2, MIR1244-1) was 0.61 log 2 and the “L/H ratio of acetylated peptide” value ((ac)[…](ac)SAR (SEQ ID NO: 464), Voltage-dependent anion-selective channel protein 1 [12], VDAC1) was −0.78 log 2. The “L/H ratio of acetylated peptide” value (ACK(ac)LAIR (SEQ ID NO: 463), Transitional endoplasmic reticulum ATPase [696], VCP) was −0.58 log 2 and the “L/H ratio of acetylated peptide NLQK(ac)EVIHR (SEQ ID NO: 125)” value (ACOX1 [504], log 2 scale, drug vs DMSO) was 0.00.
